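Exposure lasted 48 hours, with cells grown in 96-well plates and compounds tested at five concentrations. TGI denotes the concentration required for complete inhibition of growth.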
How the values were obtained:
Experiment in all cases: NCI anticancer screen, dose series, 48 h
[1] = tested on: HCT-116 colon
[2] = tested on: OVCAR-3 ovarian
[3] = tested on: HOP-92 NSCLC
[4] = tested on: RXF 393 renal
[5] = tested on: UACC-62 melanoma
[6] = tested on: HT29 colon
[7] = tested on: SF-539 CNS
[8] = tested on: U251 CNS
[9] = tested on: OVCAR-8 ovarian
[10] = tested on: SK-OV-3 ovarian

SMILES	TGI [1] [µM]	TGI [2] [µM]	TGI [3] [µM]	TGI [4] [µM]	TGI [5] [µM]	TGI [6] [µM]	TGI [7] [µM]	TGI [8] [µM]	TGI [9] [µM]	TGI [10] [µM]
COc1ccc2nc(/C(N)=C\C#N)ccc2c1	> 100	> 100	> 100	> 100	> 100	> 100	> 100	> 100	> 100	
CCOC(=O)C1(C#N)C(c2ccccc2)CC(O)(c2ccc(Cl)cc2)C(C(=O)c2ccc(Cl)cc2)C1c1ccccc1 (configuration not stated)	> 100	> 100		> 100	> 100	> 100			> 100	> 100
CS(=O)(=O)Nc1ccc2c(c1)N(S(C)(=O)=O)CC2CCl (configuration not stated)	> 100	> 100	> 100	> 100	> 100	> 100	> 100	> 100	> 100	
CN1C(=O)N(C)C(O)C(Cl)(Br)C1=O (configuration not stated)	> 100	> 100		> 100	> 100	> 100	> 100	> 100	> 100	> 100
C/C=C(/C)C(=O)OC1CC(C)[C@H]2CC(=O)C(C)=C2CC1C(C)(C)OC(C)=O (some centres not stated)	40.7	45.4	78	54.6	48.6	> 100	41	> 100	> 100	
Cc1[nH]c(=O)nc(NCCNCCO)c1C(=O)Nc1cccc2cc3ccccc3cc12	> 100	> 100	> 100	> 100	> 100	> 100	> 100	> 100	> 100	
c1cncc(CC2(c3cc4ccccc4[nH]3)OCCO2)c1	> 100		> 100		> 100	> 100	> 100	> 100	> 100	> 100
Cc1cc(C)c2c(=O)cc(-c3cccc(F)c3)[nH]c2n1	0.433	0.318	0.489			1.8	4.54	> 84.1	> 100	> 100
CN(C)CC1CCC/C(=C\c2ccc(OC(=O)c3ccc(Cl)cc3)cc2)C1=O (configuration not stated)	2.23	3.36	4.75		13.4	4.1	5.41	3.08	3.23	34.6
